Legend:
[1] = MTT cytotoxicity in uninduced ∆K280 TauRD‐DsRed 293 cells; assay type: cell-based; conditions: human
Description: (§1) Licochalcone A and five derivative LM compounds were tested (Figure 1a). All six compounds were soluble up to 100 μM in a cell culture medium (Figure S1a). Based on molecular weight (MW), hydrogen bond donors (HBD), hydrogen bond acceptors (HBA), and calculated octanol/water partition coefficient (cLogP), all six compounds meet Lipinski's criteria in predicting oral bioavailability (Lipinski, Lombardo, Dominy, & Feeney, 1997) (Figure S1b). […] To choose the optimal treatment dose used for the best efficacy of the candidate compounds, a specific type of biphasic dose response of a compound called hormesis should take into consideration. Evidence has shown that a wide range of pharmaceutical products display a hermetic dose‐response feature, characterized by a low‐dose stimulation and a high‐dose inhibition (Calabrese et al., 2018; Concetta Scuto et al., 2019; Pilipenko et al., 2019). Therefore, we tested the compounds at a range of doses to find the optimal dose for the best therapeutic effect and the least cytotoxicity. Firstly, MTT assay was performed using uninduced ∆K280 TauRD‐DsRed 293 and retinoic acid‐differentiated SH‐SY5Y cells following treatment with the test compounds (0.1–10 μM) for 3 (for 293 cells) or 7 (for SH‐SY5Ycells) days. […] Congo red is an amyloidogenic dye known to reduce Aβ neurotoxicity (Lorenzo & Yankner, 1994).
(§2) Licochalcone A was purchased from Sigma-Aldrich, St. Louis, MO, USA. In-house LM compounds were synthesized and characterized by NMR spectrum as described (Lee et al., 2012, 2015, 2018). Tet-On ∆K280 TauRD-DsRed 293 and SH-SY5Y cells (Chang et al., 2016) were cultured in Dulbecco’s modified Eagles medium (DMEM) (293) or DMEM-F12 (SH-SY5Y) containing 10% fetal bovine serum (Invitrogen, Carlsbad, CA, USA), 5 μg/ml of blasticidin, and 100 μg/ml of hygromycin (InvivoGen, San Diego, CA, USA). Compound cytotoxicity was assessed by colorimetric assay for measuring cell metabolic activity. Briefly, 5 × 10^4 cells were plated (48-well plates), grown for 20 h, and treated with the test compounds ([…]). […], 20 µl of 3-(4,5-dimethylthiazol-2-yl)-2,5-diphenyltetrazolium bromide (MTT, 5 mg/ml in PBS; Sigma-Aldrich) was added to the cells and incubated at 37°C for 3 h. Then 200 µl of lysis buffer (10% Triton X-100, 0.1 N HCl, 18% isopropanol) was added and the absorbance of the insoluble product at OD 570 nm was measured by a microplate reader (FLx800 fluorescence microplate reader, Bio-Tek, Winooski, VT, USA). The half-maximal inhibitory concentration (IC50) was calculated using the interpolation method.
(§3) Figure S1. Test compounds. (a) Solubility (in cell culture medium) of test compounds. (b) Molecular weight (MW), hydrogen bond donor (HBD), hydrogen bond acceptor (HBA), calculated octanol-water partition coefficient (cLogP), polar surface area (PSA), and predicted blood-brain barrier (BBB) score of test compounds. (c) Cytotoxicity of test compounds against ∆K280 TauRD-DsRed 293 and SH-SY5Y cells using the MTT assay. Uninduced 293 cells were plated on day 1 and treated with 0.1–10 μM test compounds on day 2. Cell viability was measured on day 5 (n = 3). In addition, uninduced SH-SY5Y cells were seeded with all trans retinoic acid (RA; 10 µM) on day 1 and treated with 0.1–10 μM test compounds on day 2. Cell viability was measured on day 9 (n = 3). To normalize, the relative viability in compound untreated cells was set at 100%. IC50 values are listed.

[2] = Cytotoxicity by survived cell number in 293 cells expressing ∆K280 TauRD‐DsRed; assay type: cell-based; conditions: human; 293 cells expressing ∆K280 TauRD‐DsRed for 3 days
Text: In ∆K280 TauRD‐DsRed 293 cells, a proaggregant (ΔK280) Tau repeat domain (TauRD) containing residues 244–372 of the full‐length 4R2N Tau441 was fused in‐frame with DsRed fluorophore. Compared to the wild‐type TauRD, the poorly folded ΔK280 TauRD formed aggregates, which adversely affected the folding of fused DsRed and thus decreased DsRed fluorescence, as also evidenced by increase in thioflavin S fluorescence emission (Chang et al., 2017). Thioflavin S is a reporter dye for studies of Tau toxicity and pharmacologic prevention in cell model of tauopathy (Pickhardt et al., 2017). It binds to amyloid fibrils but not monomers and gives a distinct increase in fluorescence emission. Inhibition of Tau aggregation may improve DsRed misfolding, leading to increased fluorescence in ΔK280 TauRD‐DsRed‐expressing cells. Utilizing the established Tet‐on ΔK280 TauRD‐DsRed 293 cells (Chang et al., 2016), licochalcone A and LM compounds were tested for effects of reducing Tau misfolding and anti‐oxidation (Figure S2a). Congo red was included for comparison. […] In the following experiments, DsRed fluorescence was measured in wells containing at least 80% viable cells. […] Due to the features of their effectiveness and less cytotoxicity, licochalcone A (1 μM) and LM‐031 (1 μM) were chosen as the candidate compounds for the following experiments. […] Representative DsRed and thioflavin S fluorescent images of ∆K280 TauRD‐DsRed‐expressing cells untreated or treated with congo red (10 µM), licochalcone A (1 µM), or LM‐031 (1 µM) are shown in Figure S2d.
DsRed fluorescence of proaggregant ∆K280 TauRD-DsRed 293 cells was evaluated to reflect Tau aggregation. On day 1, cells were seeded on a 96-well plate in a density of 0.8 × 10^4 cells/well. […] On the fifth day, the cells were stained with Hoechst 33342 (0.1 µg/ml; Sigma-Aldrich) for 30 min to identify total cell number; DsRed fluorescence images (543 nm excitation and 593 nm emission) were automatically captured by using the ImageXpressMICRO high-content imaging system (Molecular Devices, Sunnyvale, CA, USA) and analyzed using MetaXpress image acquisition and analysis software (Molecular Devices). In addition, the cells were fixed with paraformaldehyde (4% in PBS) for 15 minutes, permeabilized with methanol (80%) for 6 minutes at -20°C, incubated with thioflavin S (0.02%; Sigma-Aldrich) and 4’,6-diamidino-2-phenylindole (DAPI) (0.1 μg/ml; Sigma-Aldrich) for 5 minutes, and washed in ethanol (50%). Thioflavin S images ([…]) were captured and analyzed as described. In general, 2 × 10^4 cells in each biological replicate were analyzed.
Figure S2. ΔK280 TauRD-DsRed 293 cells. (a) Experimental flow chart. Cells were plated on day 1. On day 2, the cells were treated with congo red or test compounds for 8 h; addition of doxycycline (Dox; 1 µg/ml) followed. DsRed/thioﬂavin S fluorescence, ROS, and caspase 3 activity were assessed on day 5. (b) Cytotoxicity of the test compounds against 293 cells expressing ∆K280 TauRD-DsRed for 3 days using the survived cell number (n = 3). IC50 values are listed. (c) Dose response curves of LM-031 based on DsRed fluorescence measurement. (d) Fluorescent images of ΔK280 TauRD-DsRed 293 cells untreated or treated with congo red (10 µM), licochalcone A (1 µM), or LM-031 (1 µM). Nuclei were counterstained with Hoechst 33342 (blue), and merged DsRed and Hoechst 33342 signals were shown. In addition, tau aggregation was monitored by staining with thioﬂavin S (green).

[3] = MTT cytotoxicity in uninduced retinoic acid‐differentiated SH‐SY5Y cells; assay type: cell-based; conditions: human
Description: as §1, §2, §3

transport across PAMPA membrane (integrity marker) | Molecule | IC50 at 3 days [1] | IC50 at 3 days [2] | IC50 at 7 days [3]
 | Cc1ccc(/C=C/C(=O)c2c(O)c3ccccc3oc2=O)cc1 [LM‐016] | 9.3 µM | 9.4 µM | 6 µM
 | COc1cccc(/C=C/C(=O)c2ccc(O)cc2)c1O [LM‐026] | 7.7 µM | 8.5 µM | 5.4 µM
undetectable | Lucifer yellow |  |  | 
 | COc1ccc(O)c(/C=C/C(=O)c2ccccc2)c1 [LM‐006] | 6.4 µM | 5.3 µM | 4.7 µM
